In patent US20030134305A1, “Method for the enumeration of mammalian micronucleated erythrocyte populations with a single-laser flow cytometer” (priority 2001, published 2003):
Several values for one entry are separate records, joined by “and”; a condition that tells them apart may be missing. Equal values may be shown once.

Test system: rat peripheral blood erythrocyte populations
Conditions: male rat, oral, 10 mg/kg body weight/day for 6 days
[1] = tail vein blood ~24 hours after final administration, single replicate, 10 mg/kg/day

Method: Approximately 24 hours after the sixth and final administration, blood was collected from the tail vein after a brief warming period under a heat lamp. Blood was maintained in a sodium heparin solution (500 USP units heparin/ml PBS) at room temperature until samples were fixed with −80° C. methanol. The fixed blood samples were divided into several aliquots and were coded for single-blind analysis. […] Pellets were tapped loose and 40 μl of each cell suspension was transferred to tubes containing 100 μl labeling solution (1000 μl HBSS with 0.5% fetal bovine serum plus 5 μl anti-rat CD71-PE plus 20 μg RNase A). Cells were then incubated for 30 minutes at 4° C. and then 45 minutes at 37° C. Unbound antibody was washed by adding 3 ml HBSS plus 0.5% fetal bovine serum and centrifuging for 5 minutes at about 600×g. Supernatants were aspirated, and cell pellets were tapped loose. Cells were resuspended with 1 ml HBSS containing 10^−5 dilution of SYTOX Green nucleic acid dye. Sufficient time was allowed for the nucleic acid dye to load and equilibrate with the cells (about 15 minutes at 4° C.). Cells labeled with anti-CD71-PE and stained with SYTOX Green were analyzed with a FACSCalibur flow cytometer (488 nm excitation). The frequencies of RET^CD71+, MN-RET^CD71+ and MN-NCEs were determined. As commonly practiced by flow cytometry operators, events were gated on light scatter characteristics, and in this way subcellular debris or cellular aggregates were excluded from analysis. […] For these analyses, the stop mode was the acquisition of 20,000 RETs per replicate.

## O=P1(N(CCCl)CCCl)NCCCO1 (centres unmarked) [cyclophosphamide]
Tail vein blood ~24 hours after final administration, single replicate, 20,000 RETs per replicate
  % RET^CD71+ (CD71-positive reticulocytes): 2.66% and 2.72% and 2.57%
[1]
  % MN-NCE (micronucleated normochromatic erythrocytes): 0.05% and 0.04% (2×)
  % MN-RET^CD71+ (micronucleated CD71-positive reticulocytes): 0.73% and 0.64% and 0.63%
Avg. of 3 replicates
  % MN-NCE (micronucleated normochromatic erythrocytes), Avg.: 0.04%
  % MN-RET^CD71+ (micronucleated CD71-positive reticulocytes), Avg.: 0.67%
  % RET^CD71+ (CD71-positive reticulocytes), Avg.: 2.65%
Result in words
  DNA-breaking activity: MN-RET^CD71+ frequency versus water-treated rat: increased
  cytostatic effect: RET^CD71+ frequency versus water-treated rat: decreased
